In PMC8745332, “Synthesis, Molecular Docking and Biological Characterization of Pyrazine Linked 2-Aminobenzamides as New Class I Selective Histone Deacetylase (HDAC) Inhibitors with Anti-Leukemic Activity” (International Journal of Molecular Sciences, 2021):

Assays:
[1] = molecular target: T1, human HDAC1 (Homo sapiens, UniProt Q13547); experiment: In vitro HDAC1 inhibition assay, fluorogenic p53 peptide Ac-RHKK(Acetyl)-AMC; assay type: biochemical; conditions: for IC50: 10 nM HDAC1, 20 µM substrate, 90 min, 37 °C; for inhibition at 1 µM: read-out: HDAC1 % inhibition @ 1 µM
T1 construct: purchased ENZO Life Sciences AG (Lausen, CH)
T1 sequence (Q13547 whole entry): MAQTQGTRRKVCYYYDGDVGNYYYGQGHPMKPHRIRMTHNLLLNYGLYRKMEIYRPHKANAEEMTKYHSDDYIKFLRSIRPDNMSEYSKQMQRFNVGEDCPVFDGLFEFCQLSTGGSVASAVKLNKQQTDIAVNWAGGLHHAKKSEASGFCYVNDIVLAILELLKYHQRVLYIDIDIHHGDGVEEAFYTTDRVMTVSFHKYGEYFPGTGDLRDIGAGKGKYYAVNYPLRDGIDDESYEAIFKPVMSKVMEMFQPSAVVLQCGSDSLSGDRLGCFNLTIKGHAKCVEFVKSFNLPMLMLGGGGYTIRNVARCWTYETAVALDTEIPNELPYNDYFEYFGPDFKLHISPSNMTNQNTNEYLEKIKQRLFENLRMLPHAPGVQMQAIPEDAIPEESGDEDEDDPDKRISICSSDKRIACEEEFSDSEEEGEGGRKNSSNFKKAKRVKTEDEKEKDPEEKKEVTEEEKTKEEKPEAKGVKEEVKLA
Procedure: (§1) Recombinant human HDAC1, HDAC2, and HDAC3/NCOR1 were purchased from ENZO Life Sciences AG (Lausen, CH). Recombinant human HDAC 4, HDAC5, HDAC7, HDAC9 and HDAC11 were produced by Barinka lab in Prague, as described before. Recombinant human HDAC8 was produced by Romier et al. (IGBMC, Univ. Strasbourg), as described in [55].
(§2) The in vitro testing on recombinant HDACs 1-3 were performed with a fluorogenic peptide derived from p53 (Ac-RHKK(Acetyl)-AMC). The measurements were performed in an assay buffer (50 mM Hepes, 150 mM NaCl, 5 mM MgCl2, 1 mM TCEP and 0.2 mg/mL BSA, pH 7.4 adjusted with NaOH) at 37 °C. Inhibitors at different concentrations were incubated with 10 nM HDAC1, 3 nM HDAC2 or 3 nM HDAC3 (final concentration) for at least 5 min. The reaction was started with the addition of the fluorogenic substrate (20 µM final concentration) and incubated for 30 min for HDAC2 and HDAC3 and 90 min for HDAC1. The reaction was stopped with a solution of 1 mg/mL trypsin and 20 µM SAHA in 1 mM HCl and incubated for 1 h at 37 °C. […] The received fluorescence intensities were normalized with uninhibited reaction as 100% and the reaction without enzyme as 0%. A nonlinear regression analysis was done to determine the IC50 value.

[2] = molecular target: T2, human HDAC2 (Homo sapiens, UniProt Q92769); experiment: In vitro HDAC2 inhibition assay, fluorogenic p53 peptide Ac-RHKK(Acetyl)-AMC; assay type: biochemical; conditions: for IC50: 3 nM HDAC2, 20 µM substrate, 30 min, 37 °C; for inhibition at 1 µM: read-out: HDAC2 % inhibition @ 1 µM
T2 construct: purchased ENZO Life Sciences AG (Lausen, CH)
T2 sequence (Q92769 whole entry): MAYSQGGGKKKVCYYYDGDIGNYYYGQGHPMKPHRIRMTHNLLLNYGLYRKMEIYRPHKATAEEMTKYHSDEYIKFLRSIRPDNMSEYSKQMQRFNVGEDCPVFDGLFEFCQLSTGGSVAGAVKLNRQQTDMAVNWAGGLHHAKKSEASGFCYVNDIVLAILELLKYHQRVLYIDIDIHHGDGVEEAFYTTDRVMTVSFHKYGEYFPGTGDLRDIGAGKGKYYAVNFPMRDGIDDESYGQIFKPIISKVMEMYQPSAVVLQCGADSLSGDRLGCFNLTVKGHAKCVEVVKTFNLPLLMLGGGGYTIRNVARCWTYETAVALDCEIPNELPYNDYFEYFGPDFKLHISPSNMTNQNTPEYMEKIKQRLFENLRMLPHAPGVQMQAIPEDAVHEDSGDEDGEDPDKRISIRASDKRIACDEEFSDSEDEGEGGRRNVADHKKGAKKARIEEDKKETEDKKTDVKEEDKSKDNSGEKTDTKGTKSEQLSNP
Procedure: as §1, §2

[3] = molecular target: T3, human HDAC3/NCOR1 (Homo sapiens, UniProt O15379); experiment: In vitro HDAC3 inhibition assay, fluorogenic p53 peptide Ac-RHKK(Acetyl)-AMC; assay type: biochemical; conditions: for inhibition at 1 µM: read-out: HDAC3 % inhibition @ 1 µM; for IC50: 3 nM HDAC3, 20 µM substrate, 30 min, 37 °C
T3 construct: purchased ENZO Life Sciences AG (Lausen, CH)
T3 sequence (O15379 whole entry): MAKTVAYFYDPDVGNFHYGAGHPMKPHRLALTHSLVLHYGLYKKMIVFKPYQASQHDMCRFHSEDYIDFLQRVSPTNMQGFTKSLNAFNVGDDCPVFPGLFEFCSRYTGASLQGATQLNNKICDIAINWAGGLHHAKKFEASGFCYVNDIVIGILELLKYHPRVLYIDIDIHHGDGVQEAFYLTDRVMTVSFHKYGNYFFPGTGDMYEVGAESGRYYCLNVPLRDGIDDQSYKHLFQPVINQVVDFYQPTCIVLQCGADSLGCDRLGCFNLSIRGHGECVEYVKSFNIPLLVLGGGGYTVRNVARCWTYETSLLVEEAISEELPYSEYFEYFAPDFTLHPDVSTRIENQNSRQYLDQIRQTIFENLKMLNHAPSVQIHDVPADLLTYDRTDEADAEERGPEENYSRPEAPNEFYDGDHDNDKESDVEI
T3 sequence (O75376 395-489 partner limits assumed): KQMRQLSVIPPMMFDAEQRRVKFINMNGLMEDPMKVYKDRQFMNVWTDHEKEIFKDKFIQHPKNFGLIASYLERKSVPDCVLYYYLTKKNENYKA
Procedure: as §1, §2

[4] = molecular target: T4, human HDAC8 (Homo sapiens, UniProt Q9BY41); experiment: HDAC8 homogenous fluorescence assay with ZMAL substrate; assay type: biochemical; conditions: read-out: HDAC8 (% Inhib.)
T4 construct: made in house
T4 sequence (Q9BY41 1-377): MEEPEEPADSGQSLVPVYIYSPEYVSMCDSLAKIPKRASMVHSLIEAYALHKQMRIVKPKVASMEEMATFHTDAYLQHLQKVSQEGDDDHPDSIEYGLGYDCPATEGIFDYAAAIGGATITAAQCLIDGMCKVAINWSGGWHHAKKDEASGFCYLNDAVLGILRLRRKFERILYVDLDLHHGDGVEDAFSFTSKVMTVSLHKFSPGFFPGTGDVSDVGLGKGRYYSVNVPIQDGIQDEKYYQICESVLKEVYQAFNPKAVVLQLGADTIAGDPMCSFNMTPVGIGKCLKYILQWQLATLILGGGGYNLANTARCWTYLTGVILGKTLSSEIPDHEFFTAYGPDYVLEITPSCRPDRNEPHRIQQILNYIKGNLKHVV
Procedure: as §1
Fluorescence intensity was measured at an excitation wavelength of 390 nm and an emission wavelength of 460 nm in a microtiter plate reader (BMG Polarstar).

[5] = in vitro; conditions: human, HEK293 cells
Procedure: The cells were incubated for 48 h with the HDACi at a concentration of 50 µM, and cell viability was determined by the Alamar Blue assay.
To determine the cytotoxicity of the developed compounds on the human epithelial kidney, cell line HEK293 was used. HEK293 cells (DSMZ Braunschweig, ACC305) were incubated at 37 °C in a humidified incubator with 5% CO2 in Dulbecco’s Modified Eagle Medium (DMEM) supplemented with 10% FCS and 5 mM glutamine. Cells were seeded out at 1.5 x 10^3 cells per well in a 96-well cell culture plate (TPP, Switzerland). The compounds to be tested were added immediately to the medium at 50 µM. After 24 h, Alamar Blue reagent (Invitrogen, CA) was added according to the manufacturer’s instructions and incubated again for 21 h before samples were analyzed. Detection of viable cells which convert the resazurine reagent into the highly fluorescent resorufin was performed by using a FLUOstarOPTIMA microplate reader (BMG Labtec) with the following filter set: Ex 530 nm/Em 590 nm. Measurements were performed in triplicate and data are means with standard deviation <12%.

Row | SMILES | IC50 [1] | IC50 [2] | inhibition at 1 µM [3] | inhibition at 1 µM [4] | viability at 48 h, 50 µM [5] | IC50 [3] | inhibition at 2 µM ([1]; read-out: HDAC1 % inhibition @ 2 µM) | inhibition at 2 µM ([2]; read-out: HDAC2 % inhibition @ 2 µM) | inhibition at 2 µM ([3]; read-out: HDAC3 % inhibition @ 2 µM) | inhibition at 1 µM [1] | inhibition at 1 µM [2]
1 | Nc1ccc(-c2ccc(F)cc2)cc1NC(=O)c1cnc(N2CCN(CCc3c[nH]c4ccccc34)CC2)cn1 [21b, 5-(4-(2-(1H-indol-3-yl)ethyl)piperazin-1-yl)-N-(4-amino-4’-fluoro-[1,1’-biphenyl]-3-yl)pyrazine-2-carboxamide] | 0.7 ± 0.08 µM | 0.77 ± 0.06 µM | 0% | 0% | 71% | – | – | – | – | – | –
2 | Nc1ccccc1NC(=O)c1cnc(N2CCN(CCc3ccccc3)CC2)cn1 [19a, N-(2-Aminophenyl)-5-(4-phenethylpiperazin-1-yl)pyrazine-2-carboxamide] | 0.51 ± 0.05 µM | 0.8 ± 0.07 µM | – | 0% | 73.1% | 1.12 ± 0.07 µM | – | – | – | – | –
3 | Nc1cc(F)c(F)cc1NC(=O)c1cnc(N2CCN(CCc3c[nH]c4ccccc34)CC2)cn1 [19h] | 0.81 ± 0.07 µM | 0.74 ± 0.03 µM | – | – | 54.5% | 0.57 ± 0.02 µM | – | – | – | – | –
4 | Cn1cc(CN2CCN(c3cnc(C(=O)Nc4cc(F)ccc4N)cn3)CC2)c2ccccc21 [23b, 4-(5-((2-Amino-5-fluorophenyl)carbamoyl)pyrazin-2-yl)-1-((1-methyl-1H-indol-3-yl)methyl)piperazin-1-ium chloride] | 0.27 ± 0.03 µM | 0.5 ± 0.03 µM | – | 38% | 58.7% | 0.5 ± 0.02 µM | – | – | – | – | –
5 | Nc1ccccc1NC(=O)c1cnc(N2CCN(CCc3ccc(Cl)cc3)CC2)cn1 [19b, N-(2-Aminophenyl)-5-(4-(4-chlorophenethyl)piperazin-1-yl)pyrazine-2-carboxamide] | – | – | – | 3.4% | 78.6% | – | 25.8% | 30.3% | 65.2% | – | –
6 | Nc1ccccc1NC(=O)c1cnc(N2CCN(Cc3csc4ccccc34)CC2)cn1 [19e, N-(2-Aminophenyl)-5-(4-(benzo[b]thiophen-3-ylmethyl)piperazin-1-yl)pyrazine-2-carboxamide] | 0.21 ± 0.07 µM | 0.71 ± 0.04 µM | – | 0% | 50.9% | 0.84 ± 0.03 µM | – | – | – | – | –
7 | Cn1cc(CN2CCN(c3cnc(C(=O)Nc4cc(F)c(F)cc4N)cn3)CC2)c2ccccc21 [19l] | 0.29 ± 0.03 µM | 0.56 ± 0.02 µM | – | – | 20.1% | 0.81 ± 0.05 µM | – | – | – | – | –
8 | Nc1ccc(C(F)(F)F)cc1NC(=O)c1cnc(N2CCNCC2)cn1 [27a, N-(2-amino-5-(trifluoromethyl)phenyl)-5-(piperazin-1-yl)pyrazine-2-carboxamide] | – | – | 0% | – | – | – | – | – | – | 0% | 0%
9 | CN1CCN(c2cnc(C(=O)Nc3cc(-c4ccsc4)ccc3N)cn2)CC1 [29a, N-(2-amino-5-(thiophen-3-yl)phenyl)-5-(4-methylpiperazin-1-yl)pyrazine-2-carboxamide] | 0.11 ± 0.01 µM | 0.18 ± 0.06 µM | – | – | 65.8% | 4.4 ± 0.1 µM | – | – | – | – | –
10 | CN1CCN(c2cnc(C(=O)Nc3cc(-c4ccccc4F)ccc3N)cn2)CC1 [29d, N-(4-amino-2’-fluoro-[1,1’-biphenyl]-3-yl)-5-(4-methylpiperazin-1-yl)pyrazine-2-carboxamide] | 0.18 ± 0.01 µM | 0.26 ± 0.07 µM | – | – | 54% | 12 ± 1 µM | – | – | – | – | –
11 | COc1ccc(NC(=O)c2cnc(N3CCNCC3)cn2)c(N)c1 [27c, N-(2-amino-4-methoxyphenyl)-5-(piperazin-1-yl)pyrazine-2-carboxamide] | 20 ± 1 µM | 14 ± 2 µM | – | – | – | 14 ± 1 µM | – | – | – | – | –
12 | Nc1cc(F)c(F)cc1NC(=O)c1cnc(N2CCNCC2)cn1 [25b, N-(2-amino-4,5-difluorophenyl)-5-(piperazin-1-yl)pyrazine-2-carboxamide] | 4.3 ± 0.3 µM | 4.2 ± 0.1 µM | – | – | 83.7% | 1.6 ± 0.1 µM | – | – | – | – | –
13 | Nc1cc(Cl)ccc1NC(=O)c1cnc(N2CCNCC2)cn1 [25a, N-(2-amino-4-chlorophenyl)-5-(piperazin-1-yl)pyrazine-2-carboxamide] | – | – | – | – | – | 8.7 ± 0.4 µM | – | – | – | 0% | 0%
14 | Cn1cc(CN2CCN(c3ncc(C(=O)Nc4ccccc4N)cn3)CC2)c2ccccc21 [19j, N-(2-aminophenyl)-2-(4-((1-methyl-1H-indol-3-yl)methyl)piperazin-1-yl)pyrimidine-5-carboxamide] | 0.45 ± 0.06 µM | 0.93 ± 0.04 µM | – | 0% | 62.5% | 1.75 ± 0.06 µM | – | – | – | – | –
15 | Nc1ccc(-c2ccc(F)cc2)cc1NC(=O)c1cnc(N2CCNCC2)cn1 [29c, N-(4-amino-4’-fluoro-[1,1’-biphenyl]-3-yl)-5-(piperazin-1-yl)pyrazine-2-carbox-amide] | 0.16 ± 0.03 µM | 0.34 ± 0.01 µM | – | – | 2.2% | 6.7 ± 0.5 µM | – | – | – | – | –
16 | CN1CCN(c2cnc(C(=O)Nc3ccccc3N)cn2)CC1 [19o, N-(2-aminophenyl)-5-(4-methylpiperazin-1-yl)pyrazine-2-carboxamide] | – | – | 30% | – | – | – | – | – | – | 27% | 15%
17 | Nc1ccc(-c2ccccc2F)cc1NC(=O)c1cnc(N2CCN(CCc3c[nH]c4ccccc34)CC2)cn1 [21c, 5-(4-(2-(1H-indol-3-yl)ethyl)piperazin-1-yl)-N-(4-amino-2’-fluoro-[1,1’-biphenyl]-3-yl)pyrazine-2-carboxamide] | 0.76 ± 0.07 µM | 0.76 ± 0.04 µM | – | 0% | 72.3% | 15 ± 1 µM | – | – | – | – | –
18 | Cn1cc(CN2CCN(c3cnc(C(=O)Nc4ccccc4N)cn3)CC2)c2ccccc21 [19k, N-(2-aminophenyl)-5-(4-((1-methyl-1H-indol-3-yl)methyl)piperazin-1-yl)pyrazine-2-carboxamide] | 0.14 ± 0.02 µM | 0.56 ± 0.04 µM | – | 0% | 71.4% | 0.59 ± 0.03 µM | – | – | – | – | –
19 | Nc1ccccc1NC(=O)c1cnc(N2CCN(Cc3ccccn3)CC2)cn1 [19d, N-(2-Aminophenyl)-5-(4-(pyridin-2-ylmethyl)piperazin-1-yl)pyrazine-2-carboxamide] | 0.52 ± 0.07 µM | 1.43 ± 0.08 µM | – | 0% | 67.7% | 1.06 ± 0.04 µM | – | – | – | – | –
20 | Cn1cc(CCN2CCN(c3cnc(C(=O)Nc4ccc(F)cc4N)cn3)CC2)c2ccccc21 [19m, N-(2-Amino-4-fluorophenyl)-5-(4-(2-(1-methyl-1H-indol-3-yl)ethyl)piperazin-1-yl)pyrazine-2-carboxamide] | 0.4 ± 0.06 µM | 1.48 ± 0.19 µM | – | – | 52.5% | 0.4 ± 0.02 µM | – | – | – | – | –
21 | CN1CCN(c2ncc(C(=O)Nc3ccccc3N)cn2)CC1 [19n, N-(2-aminophenyl)-2-(4-methylpiperazin-1-yl)pyrimidine-5-carboxamide] | – | – | 13% | – | – | – | – | – | – | 5% | 7%
22 | Cc1ccc(NC(=O)c2cnc(N3CCNCC3)cn2)c(N)c1 [27b, N-(2-amino-4-methylphenyl)-5-(piperazin-1-yl)pyrazine-2-carboxamide] | – | – | 0% | – | – | – | – | – | – | 0% | 0%
23 | Cn1cc(CCN2CCN(c3cnc(C(=O)Nc4cc(F)ccc4N)cn3)CC2)c2ccccc21 [23c, N-(2-Amino-5-fluorophenyl)-5-(4-(2-(1-methyl-1H-indol-3-yl)ethyl)piperazin-1-yl)pyrazine-2-carboxamide] | 0.33 ± 0.02 µM | 1.37 ± 0.08 µM | – | – | 55.7% | 0.59 ± 0.04 µM | – | – | – | – | –
24 | Nc1cc(Cl)ccc1NC(=O)c1cnc(N2CCN(CCc3c[nH]c4ccccc34)CC2)cn1 [19i, 5-(4-(2-(1H-indol-3-yl)ethyl)piperazin-1-yl)-N-(2-amino-4-chlorophenyl)pyrazine-2-carboxamide] | 3 ± 0.2 µM | 2.7 ± 0.2 µM | – | – | 47.5% | 1.9 ± 0.1 µM | – | – | – | – | –
